Drawing on patent US20230310445A1, “LOX ENZYME INHIBITING METHODS AND COMPOSITIONS” (ANOVIA BIOSCIENCES, INC., priority 2020, published 2023), this text covers IC50 for twelve molecules.

In assay [1] the target is T1, Recombinant human LOXL2 (lysyl oxidase like 2) (Homo sapiens, UniProt Q9Y4K0).
T1 construct: purchased R&D systems
T1 sequence (Q9Y4K0 26-774): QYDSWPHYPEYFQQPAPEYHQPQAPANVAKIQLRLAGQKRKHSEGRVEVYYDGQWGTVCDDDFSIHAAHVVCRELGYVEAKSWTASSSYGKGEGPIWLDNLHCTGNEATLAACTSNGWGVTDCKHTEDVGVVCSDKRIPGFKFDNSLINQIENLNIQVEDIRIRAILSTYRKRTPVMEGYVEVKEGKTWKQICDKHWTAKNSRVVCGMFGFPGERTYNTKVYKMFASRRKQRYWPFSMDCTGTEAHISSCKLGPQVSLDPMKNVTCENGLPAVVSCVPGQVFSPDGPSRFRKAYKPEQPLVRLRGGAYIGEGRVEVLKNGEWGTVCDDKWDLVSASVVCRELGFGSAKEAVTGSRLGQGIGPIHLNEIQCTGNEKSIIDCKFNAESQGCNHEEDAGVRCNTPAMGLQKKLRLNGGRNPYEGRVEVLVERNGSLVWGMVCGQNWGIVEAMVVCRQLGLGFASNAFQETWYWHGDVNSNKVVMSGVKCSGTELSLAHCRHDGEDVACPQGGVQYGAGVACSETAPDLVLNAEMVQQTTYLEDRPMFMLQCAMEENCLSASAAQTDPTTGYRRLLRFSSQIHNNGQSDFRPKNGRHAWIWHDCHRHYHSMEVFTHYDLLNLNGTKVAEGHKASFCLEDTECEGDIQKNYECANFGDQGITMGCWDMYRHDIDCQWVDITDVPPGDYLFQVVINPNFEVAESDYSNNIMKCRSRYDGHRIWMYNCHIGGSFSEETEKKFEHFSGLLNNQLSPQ
Kind of assay: LOXL2 inhibition assay (fluorometric, cadaverine/Amplex Red/HRP). It is filed as biochemical. The following applies: IC50 class; recombinant human LOXL2, cadaverine substrate; read-out: Activity Range LOXL2. Here is the method: (§1) The ability of compounds to inhibit one or more of the lysyl oxidases LOXL2 and/or LOXL3 was determined using a fluorometric assay. This assay measures the activity of lysyl oxidases by coupling the reaction with horseradish peroxidase-catalyzed […]. The activity assay protocol uses cadaverine as substrate that releases hydrogen peroxide upon transformation by the specific LOX family enzyme present in the sample. Hydrogen peroxide is in turn detected using a red fluorescence substrate for HRP-coupled reactions (Amplex Red Enzyme Assays, Thermo Scientific Fisher). This leads to increase in fluorescence that can be easily detected at Ex/Em=540/590 nm in a fluorescence microplate reader.
Enzymes: Recombinant human LOXL2 (lysyl oxidase like 2) and recombinant human LOXL3 (lysyl oxidase like 3) were purchased from R&D systems and assays were performed in 1.2 M urea, 50 mM sodium borate buffer pH 8.0, and 10 mM CaCl.
Reaction: Final concentration in the LOXL2 and LOXL3 assays were as following and performed in a total volume of […]:
Experimental procedure: 5 μl of freshly prepared reaction buffer were delivered to reaction wells. Compounds were resuspended in 100% DMSO at 10 mM and delivered into buffer using acoustic technology (Echo550; nanoliter range). A 3× solution of LOXL2 or LOXL3 in reaction buffer was prepared (“enzyme solution”) and 5 μL of enzyme solution was added into the reaction wells. Buffer only was added to column 1 for no protein control. Reactions were incubated for 30 minutes at 37° C. A 3×mixture of cadaverine, Amplex Red, and HRP (“Substrate/Detection Mix) was prepared and subsequently 5 μL of the mixture added to each reaction well. Progress of reactions was monitored for 60 minutes at 37° C. using Clariostar plate reader (ex 530-12, ems 600-40). For all activity assays, pan-LOX inhibitor CCT365623 (Tang et al, 2017) and LOXL2/LOXL3 inhibitor PAT-1251 (PharmaKea) were included as standards.
Data analysis: Slope of the linear portion of the progress curve was calculated using Clariostar software. Typical analysis interval was between 8-30 min, but varied between experiments. The background subtracted signals (No protein wells are considered as background) were converted to % activity relative to DMSO controls. Data was analyzed using GraphPad Prism 4 with “sigmoidal dose-response (variable slope)”; 4 parameters with Hill Slope. Constraints: Bottom=Constant equal to 0. Top=Must be less than 120.

Assay [2] concerns the target T2, Bovine lysyl oxidase (LOX) (Bos taurus, UniProt P33072).
T2 construct: from tissue; host or cells: adult bovine tendon
T2 sequence (P33072 170-418): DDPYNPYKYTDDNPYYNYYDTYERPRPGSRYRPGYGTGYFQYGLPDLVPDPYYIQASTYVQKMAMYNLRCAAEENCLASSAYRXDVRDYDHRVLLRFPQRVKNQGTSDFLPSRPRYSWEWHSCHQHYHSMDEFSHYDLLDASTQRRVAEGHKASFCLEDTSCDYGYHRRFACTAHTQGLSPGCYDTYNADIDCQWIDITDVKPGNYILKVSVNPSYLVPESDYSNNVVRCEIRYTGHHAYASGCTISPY
Description: LOX inhibition assay (fluorometric, cadaverine/Amplex Red/HRP). It is filed as biochemical. The following applies: IC50 class; bovine tendon LOX, cadaverine substrate; read-out: Activity Range LOX. As for the experimental part: as §1, with “prototypic LOX” for “one or more of the lysyl oxidases LOXL2 and/or LOXL3”, “prototypic” for “the specific”, “LOX” for “LOX family”
Enzyme: Bovine lysyl oxidase (LOX) was extracted by adapting the methodology from [Kagan et al. 1979 and Borel et al. 2001.] from bovine tendon: Frozen adult bovine tendon was placed in room temperature water to defrost, and then membranes were removed and the remaining tissue cut into 1 cm pieces. The material was first passed through a course mesh meat grinder, and this mince was passed through a fine mesh grinder. The mince was homogenized in 10 v/w of buffer (16 mM sodium phosphate buffer pH 7.8, 400 mM NaCl) using a Waring blender. The homogenate was centrifuged at 15,000×g for 15 min at 4° C. After centrifugation, the supernatant was discarded and the pellets resuspended in 10 volumes of the same buffer. The mixture was blended again and centrifuged with the same settings. This time the pellets were blended in 3 volumes of extraction buffer (16 mM sodium phosphate buffer pH 7.8) and left to incubate at 4° C. for 2 h. After this time, the slurry was centrifuged with the same settings as described above. The supernatant was used in an ultrafiltration step to remove large proteins by size exclusion through a 30 kDalton filter (EMD Millipore). The filtrate was mixed with DEAE Sephadex (GE Healthcare), or passed over a MonoQ FPLC column. After two washes, one in 16 mM sodium phosphate buffer pH 7.8, 380 mM NaCl, and another in 16 mM sodium phosphate buffer pH 7.8, the proteins were eluted with 16 mM sodium phosphate pH 7.8, 10 μM CuSO4, and 4 M urea. Fractions containing Lox activity were collected and stored frozen at −70° C.
Reaction: Final concentration in the LOX assay was as following and performed in a total volume of […]:
Experimental procedure: 7 μl of freshly prepared reaction buffer were delivered to reaction wells. Compounds were resuspended in 100% DMSO at 10 mM and delivered into buffer using acoustic technology (Echo550; nanoliter range). A 2.85× solution of LOX protein in reaction buffer was prepared (“LOX solution”) and 7 μl of LOX solution was added into the reaction wells. Buffer only was added to column 1 for no protein control. Reactions were incubated for 30 minutes at 37° C. A 3.33× mixture of cadaverine, Amplex Red, and HRP (“Substrate/Detection Mix) was prepared and subsequently 6 μL of the mixture was added to each reaction well. Progress of reactions was monitored for 120 minutes at 37° C. using Clariostar plate reader (ex530-12, ems 600-40). For all activity assays, pan-LOX inhibitor CCT365623 (Tang et al, 2017) and LOXL2/LOXL3 inhibitor PAT-1251 (PharmaKea) were included as standards.
Data analysis: Slope of the linear portion of the progress curve was calculated using Clariostar software. Typical analysis interval was between 20-50 min, but varied between experiments. The background subtracted signals (No protein wells were considered as background) were converted to % activity relative to DMSO controls. Data was analyzed using GraphPad Prism 4 with “sigmoidal dose-response (variable slope)”; 4 parameters with Hill Slope. Constraints: Bottom=Constant equal to 0. Top=Must be less than 120.

For the molecule `CN(C)C(=O)[C@H]1C[C@@H](c2ccccc2)CN(S(=O)(=O)c2ccc(CN)s2)C1` (racemic) [Example 9, cis-1-((5-(Aminomethyl)thiophen-2-yl)sulfonyl)-N,N-dimethyl-5-phenylpiperidine-3-carboxamide 2,2,2-trifluoroacetate], the values for the IC50 in assay [1] and in assay [2] were at most 500 nM and 500 to 1000 nM, respectively.
With `NCc1ccc(S(=O)(=O)N2C[C@@H](C(=O)N3CCCCC3)C[C@@H](c3ccccc3)C2)s1` (racemic) [Example 11, cis-(1-((5-(Aminomethyl)thiophen-2-yl)sulfonyl)-5-phenylpiperidin-3-yl)(piperidin-1-yl)methanone 2,2,2-trifluoroacetate], the IC50 in assay [1] and in assay [2] was at most 500 nM each time.
On to `NCc1ccc(S(=O)(=O)N2C[C@@H](C(=O)N3CCNCC3)C[C@@H](c3ccccc3)C2)s1` (racemic) [Example 15, cis-(1-((5-(Aminomethyl)thiophen-2-yl)sulfonyl)-5-phenylpiperidin-3-yl)(piperazin-1-yl)methanone 2,2,2-trifluoroacetate], for which the IC50 in assay [1] is at most 500 nM; in assay [2] it was 500 to 1000 nM.
Regarding `CN1CCN(C(=O)[C@H]2C[C@@H](c3ccccc3)CN(S(=O)(=O)c3ccc(CN)s3)C2)CC1` (racemic) [Example 17, cis-(1-((5-(Aminomethyl)thiophen-2-yl)sulfonyl)-5-phenylpiperidin-3-yl)(4-methylpiperazin-1-yl)methanone 2,2,2-trifluoroacetate], the IC50 in assay [1] was at most 500 nM; in assay [2], 500 to 1000 nM.
In the same order, the values of `CS(=O)(=O)[C@@H]1C[C@H](Oc2ccc(CN)cc2)CN(c2ccccc2)C1` (racemic) [Example 20, cis-(4-((-5-(Methylsulfonyl)-1-phenylpiperidin-3-yl)oxy)phenyl)methanamine2,2,2-trifluoroacetate] are 1000 to 30000 nM and 1000 to 30000 nM.
For `CS(=O)(=O)[C@@H]1C[C@H](Oc2cccc(CN)c2)CN(c2ccccc2)C1` (racemic) [Example 21, cis-(3-((-5-(Methylsulfonyl)-1-phenylpiperidin-3-yl)oxy)phenyl)methanamine 2,2,2-trifluoroacetate], the figures for the IC50 in assay [1] and in assay [2] were 500 to 1000 nM and over 30000 nM, respectively.
For the molecule `CS(=O)(=O)[C@H]1C[C@@H](S(=O)(=O)c2ccc(CN)cc2)CN(c2ccccc2)C1` (racemic) [Example 22, cis-(4-((5-(Methylsulfonyl)-1-phenylpiperidin-3-yl)sulfonyl)phenyl)methanamine 2,2,2-trifluoroacetate], the IC50 is at most 500 nM in assay [1] and 1000 to 30000 nM in assay [2].
In the same order, the values of `CS(=O)(=O)N1C[C@H](Oc2ccc(CN)cc2)C[C@H](c2ccccc2)C1` (racemic) [Example 24, cis-(4-((1-(Methylsulfonyl)-5-phenylpiperidin-3-yl)oxy)phenyl)methanamine 2,2,2-trifluoroacetate] are 1000 to 30000 nM and over 30000 nM.
Turning to `CS(=O)(=O)N1C[C@H](Oc2cccc(CN)c2)C[C@H](c2ccccc2)C1` (racemic) [Example 25, cis-(3-((-1-(Methylsulfonyl)-5-phenylpiperidin-3-yl)oxy)phenyl)methanamine 2,2,2-trifluoroacetate], the IC50 in assay [1] was 500 to 1000 nM; in assay [2] it was 1000 to 30000 nM.
For `CS(=O)(=O)N1C[C@@H](c2ccccc2)C[C@@H](S(=O)(=O)c2ccc(CN)cc2)C1` (racemic) [Example 26, cis-(4-((1-(Methylsulfonyl)-5-phenylpiperidin-3-yl)sulfonyl)phenyl)methanamine 2,2,2-trifluoroacetate], the IC50 is at most 500 nM in assay [1] and 1000 to 30000 nM in assay [2].
On to `CS(=O)(=O)N1C[C@@H](c2ccccc2)C[C@@H](S(=O)(=O)c2cccc(CN)c2)C1` (racemic) [Example 27, cis-(3-((1-(Methylsulfonyl)-5-phenylpiperidin-3-yl)sulfonyl)phenyl)methanamine 2,2,2-trifluoroacetate], for which the IC50 in assay [1] is at most 500 nM; in assay [2] it was 1000 to 30000 nM.
With `NCc1cccc(S(=O)(=O)N2C[C@@H](C(=O)N3CCOCC3)C[C@@H](c3ccccc3)C2)n1` (racemic) [Example 114, cis-(1-((6-(Aminomethyl)pyrid-2-yl)sulfonyl)-5-phenylpiperidin-3-yl)(morpholino)methanone], the IC50 in assay [1] is over 30000 nM.
